One assay deals with THP-1 cells. Kind of assay: LPS-induced inflammation in THP-1 cells (MSD V-PLEX cytokines), Example 25. Format: cell-based, human. Particulars: Candesartan 1 μg/mL; 500 ng LPS; 24 hours. As for the experimental part:
A composition comprising […] was prepared as described in Example 23 and sterile filtered, referred to as Composition […]. 300,000 THP-1 cells were plated per well. Control wells included media only. Cells were contacted with LPS and test articles as outlined in Tables 20 and 21. For a positive control, cells were administered 1.0 μg/mL Candesartan. Candesartan is a […] and known to reduce the production of cytokines. Specifically, candesartan is an angiotensin receptor subtype 1 inhibitor and was utilized as a positive control. The cells were incubated for 1 hour. The cells were incubated, and samples of the supernatant were collected at 4 hours and 24 hours. The remaining cells were collected and analyzed for total cell count and percent viability. The Meso Scale Discovery (MSD; Rockville, […]) V-PLEX kit (4-PLEX) with IL-1b, IL-6, IL-8, and TNF-α were used to analyze the cytokines in the media at 4 and 24 hours after LPS stimulation.

Assay [1] deals with normal human dermal fibroblasts (NHDF) cells. The assay can be described thus: Scratch assay (in vitro wound closure). It is filed as cell-based. Particulars: 3.7 ng/mL PDGF-BB, positive control. As for the experimental part: The test articles are outlined in Table 30 below. Briefly, AHPPDP was prepared based on the methods disclosed herein.
3,000 normal human dermal fibroblasts (NHDF) cells were plated per well. […] Vehicle at 9% concentration was the negative control.
The output measures of the scratch assay were, total number of nuclei per well, sum of cell area per well, and sum of empty area per well.

In the assay on THP-1 cells, `CCOc1nc2cccc(C(=O)O)c2n1Cc1ccc(-c2ccccc2-c2nnn[nH]2)cc1` [Candesartan] came in with an IL1-beta of 0 pg/mL, an IL-6 of 0 pg/mL, an IL-8 of 1.44 pg/mL and a TNF-alpha of 0 pg/mL.

B1: PDGF-BB: PDGF-BB in cell media, positive control of the scratch assay (protein, UniProt P01127 82-190, looked up)
Platelet-derived growth …: SLGSLTIAEPAMIAECKTRTEVFEISRRLIDRTNANFLVWPPCVEVQRCSGCCNNRNVQCRPTQVQLRPVQVRKIEIVRKKPIFKKATVTLEDHLACKCETVAAARPVT
As for B1, in assay [1], the wound healing result is given as “Wound healing compared to vehicle condition was obtained”.
